Experimental data from patent US20240287614A1, “RECIPROCAL MICRORNA-MRNA PAIRINGS AS BIOMARKERS AND THERAPEUTIC TARGETS IN CANCER” (UNIVERSITY OF MARYLAND, EASTERN SHORE, priority 2023, published 2024).

Tests used:
Type in all cases: cell-based, human
[1] = tested on: mTOR and pmTOR; assay: Western blot of mTOR and pmTOR in cytoplasmic and nuclear fractions of prostate cancer cell lines
From the text: (§1) The human cell lines used in the study included: 22Rv1, LNCaP, PC-3, RC77 T/E and MDA PCa 2b (prostate cancer cell lines), MDA MB 231 and MCF-7 (breast cancer cell lines), HT-29 and SW620 (colon cancer cell lines), A549 and H1299 (lung cancer cell lines). RWPE-1, HMEC, FHC, and BEAS-2B were used as normal control cell lines for prostate, breast, colon, and lung, respectively. Note that 22Rv1 is a castration-resistant […] prostate cancer cell line, while LNCaP and PC-3 were derived from lymph node and bone metastasis of […] prostate cancer patients, respectively. RC77 T/E was derived from a primary prostate cancer patient, and MDA PCa 2b was derived from bone metastasis of an prostate cancer patient. The cell lines described were used as in vitro cell models to evaluate the functional roles of miR-99b-5p/MTOR pairing in the […] prostate cancer, African American prostate cancer and solid tumors in general. The cells were grown in specific cell culture media described as follows: 22Rv1, LNCaP, MCF-7 and H1299 were cultured in RPMI-1640 with 10% fetal bovine serum (FBS), PC-3, A549 and FHC were cultured in DMEM with 10% FBS, RC77 T/E was cultured in Keratinocyte SFM with human recombinant epidermal growth factor (EGF) and bovine pituitary extract (BPE), MDA PCa 2b were cultured in BRFF-HPC1 with 20% FBS, HT-29 was cultured in McCory's with 10% FBS, SW620 and MDA MB 231 were cultured in L-15 with 10% FBS, HMEC was cultured in mammary epithelial cell basal medium with supplements, and BEAS-2B was cultured in BEBM base medium with BEBM supplement kit. Cells were maintained at 37° C. in a 5% CO2 incubator.
(§2) The 22Rv1, LNCaP, PC-3, MDA PCa 2b, MCF7, H1299, A549, HT-29, SW620, MDA MB-231, HMEC and BEAS-2B cells were seeded at a density of 3×10^5 cells/well in 6-well plates. RC77 T/E cells were seeded at a density of 5×10^5 cells/well in 6-well plates. The cells were grown for 24 h and then transfected with nonsense/scrambled RNA (NS) and miR-99b-5p mimic (Ambion) using DharmaFECT4 transfection reagent (Dharmacon). After 24 h, fresh media were applied to replace the transfection reagent-containing media, then the cells were incubated for an additional 24 h.
The total proteins were extracted using M-PER extraction reagent with protease and phosphatase inhibitor cocktail (Thermo Fisher Scientific) according to manufacturer's protocol. Cytoplasm and nuclear proteins were extracted using Subcellular Protein Fractionation kit (Thermo Fisher Scientific) according to the manufacturer's protocol. Equal amounts of proteins were used based on the quantification using BCA assay kit (Thermo Fisher Scientific), and the samples were separated by electrophoresis using NuPAGE 4-12% or 8% Bis-Tris gels (Invitrogen). The gels were transferred to PVDF membranes (Bio-Rad) then the PVDF membranes were incubated with SuperBlock blocking buffer (Thermo Fisher Scientific). After 1 h, the PVDF membranes were incubated with primary antibodies overnight at 4° C., washed 3 times with 1×TBST, and then incubated with secondary antibody for 1 h at room temperature, then washed 5 times with 1×TBST. The results were analyzed with SuperSignal ECL substrates (Thermo Fisher Scientific) and a ChemiDoc XRS system (Bio-Rad). The primary and secondary antibodies used in the study were mTOR, pmTOR, AR, GAPDH, Lamin B1, β-actin, and anti-rabbit IgG-HRP antibodies from Cell Signaling Technology.

[2] = tested on: mTOR and pmTOR; assay: Immunofluorescence of mTOR and pmTOR in colon, breast and lung cancer cell lines
From the text: as §1, §2
(§3) In this process, 4×10^4 cells were seeded on cover slip and allowed to adhere for 24 h in 5% CO2 incubator at 37° C. All the cells were subjected to immunofluorescence assays 48 h following transfection. Briefly, cells were washed with 1×PBS, fixed in 4% paraformaldehyde, and permeabilized with 0.1% Triton X-100. Cells were then blocked for 1 h with 2% BSA in 1×PBS. […] All labeled and/or prepared cells mounted on glass slides and were visualized by fluorescence microscopy (Olympus). […]

[3] = tested on: mTOR and pmTOR; assay: Immunofluorescence of mTOR and pmTOR in prostate cancer cell lines transfected with NS or miR-99b-5p mimic; details: vs NS
From the text: as §1, §2, §3

[4] = all European American and African American prostate cancer cell lines, 48 h transfection, vs NS
[5] = metastatic prostate cancer cell line MDA PCa 2b
[6] = HT-29, SW620, MDA MB 231, MCF-7, A549, H1299, miR-99b-5p transfected vs NS transfected
[7] = six colon, breast, lung cancer cell lines, mimic vs NS
[8] = 22Rv1, LNCaP, PC-3, RC77 T/E, MDA PCa 2b, 48 h following transfection
[9] = all European American and African American prostate cancer cell lines

For “miR-99b-5p mimic: miRNA mimic of miR-99b-5p (SEQ ID NO: 2, CACCCGUAGAACCGACCUUGCG), purchased from Ambion (listed as RNA, chemistry not given here; listed as Homo sapiens)”, the “mTOR in nuclear fractions (Western blot)” value [1, 4] was “moderate to significant reduction”, the “pmTOR in nuclear fractions (Western blot)” value [1, 4] was “moderate to significant reduction” and the “cytoplasmic mTOR (Western blot)” value ([1]; all the prostate cancer cell lines, vs NS) was “slight to no reduction”. For the same substance, the “nuclear mTOR (Western blot)” value [1, 5] was “significant decrease”, the “nuclear pmTOR (Western blot)” value [1, 5] was “significant decrease” and the “mTOR levels (immunofluorescence)” value [2, 6] was “generalized reduction”. The “pmTOR levels (immunofluorescence)” value [2, 6] was “generalized reduction”, the “cytoplasmic mTOR/nuclear mTOR ratios (immunofluorescence)” value [2, 7] was “elevated” and the “cytoplasmic pmTOR/nuclear pmTOR ratios (immunofluorescence)” value [2, 7] was “elevated”. For the same substance, the “pmTOR signals (immunofluorescence)” value [3, 8] was “generalized reduction”, the “total mTOR signals (immunofluorescence)” value [3, 8] was “generalized reduction” and the “cytoplasmic pmTOR signals (immunofluorescence quantification)” value [3, 9] was “increased”. The “nuclear pmTOR signals (immunofluorescence quantification)” value [3, 9] was “reduced significantly”.
